Measurements: patent US8535693B2, “Topical formulation(s) for the treatment of inflammation, skin and mucosal disorders and other diseases thereof” (Laila Pharmaceuticals Private Limited, priority 2008, dated 2013)

Legend:
[1] = Particle size distribution study (Malvern particle size analyzer, laser diffraction); assay type: physicochemical; conditions: nanoemulsified vs unformulated
Experimental: This study proves that a curcumin molecule which is originally 374 nm in the unformulated form is emulsified into 8-11 nm sized particles through a unique process, which has been indicated for this enhanced transport and efficacy of curcumin through the formulation. The study was conducted using Malvern particle size analyzer. The map of scattering intensity versus angle is the primary source of information used to calculate the particle size. The scattering of particles is accurately predicted by the Mie scattering model allowing accurate sizing across the widest possible dynamic range. During the laser diffraction measurement, particles are passed through a focused laser beam. These particles scatter light at an angle that is inversely proportional to their size. The angular intensity of the scattered light is then measured by a series of photosensitive detectors. The advantage of this study is that there is no sample preparation involved. […] Additional peaks can be observed which is contributed by the high molecular weight excipients used to prepare the formulation.

[2] = system: psoriasis; conditions: Heng et al., Br J Dermatol 2000; cited from earlier work
[3] = system: phosphorylase kinase; conditions: Reddy & Aggarwal, FEBS Lett 1994; cited from earlier work
[4] = system: TNFα-induced gene expression in Human Microvascular Endothelial Cells (HMEC); assay: Microarray study of TNFα-induced gene expression in HMEC; assay type: cell-based
Experimental: Effects of BDMC/Curcumin/Curcuminoids were Studied in TNFα-Induced Gene Expression in Human Microvascular Endothelial Cells (HMEC):
Micro array analysis was carried out to identify the sets of gene differentially expressed in TNFα treated endothelial cells pretreated/not pretreated with demethylated curcuminoids (BMDC, curcumin)/with curcuminoids. Data acquisition and image processing were performed using GCOS (Gene Chip Operating Software, Affymetrix). Genes that were >2.0 fold up regulated in TNFα-treated group compared to TNFα untreated control group were selected and subjected to hierarchical clustering. […] These sub-clusters were subjected to further functional analysis using DAVID (Database for Annotation, Visualization and Integrated Discovery NIAID, NIH) (FIG. 10, 11). Major known pathways (KEGG, Kyoto Encyclopedia of Genes and Genomes) identified in each of the cluster have been illustrated as pathway maps marking the candidate genes.
GeneChip™ screening of TNFα-inducible transcriptome of HMEC identified 1195 probe sets that were induced by a magnitude of two-fold or higher.

Row | Compound | particle size [1] | particle size ([1]; listed as unformulated curcumin 98%) | resolution of psoriasis [2] | phosphorylase kinase inhibition [3] | effect on TNFα ([4]; HMEC challenged with TNFα) | number of TNFα inducible genes sensitive to the substance ([4]; microvascular endothelial cells challenged with TNFα, 1195 probe sets induced two-fold or higher)
1 | COc1cc(/C=C/C(=O)CC(=O)/C=C/c2ccc(O)c(OC)c2)ccc1O [curcumin] | 374 nm | 373 nm | leads to resolution of psoriasis | selective phosphorylase kinase inhibitor | – | –
2 | O=C(/C=C/c1ccc(O)c(O)c1)CC(=O)/C=C/c1ccc(O)c(O)c1 [bis-O-demethyl curcumin, Bis-O-Demethyl curcumin] | – | – | – | – | antagonizing effects on TNFα | 1065 genes
